Test results taken from article PMC4860837, “Structural basis for Sfm1 functioning as a protein arginine methyltransferase” (Cell Discovery, 2015).

Molecular target: T1, Sfm1 (Saccharomyces cerevisiae, UniProt Q12314)
T1 construct: full length, residues 1-213; C-terminal His6 tag (crystal) or N-terminal GST tag (activity assay), E. coli BL21(DE3); monomer
Experiment: X-ray crystallography, […] Å
Type: binding
Conditions: co-crystallised with SAH ([…] molar ratio), pH […] °C; cofactor pocket of trefoil knot

Nc1ncnc2c1ncn2[C@@H]1O[C@H](CSCC[C@H](N)C(=O)O)[C@@H](O)[C@H]1O [SAH]
X-ray crystallography, 2.5 Å: In the SAH-bound Sfm1 structure, SAH is clearly defined in the electron density map
